In patent US20050272677A1, “Delivery of a substance to a pre-determined site” (priority 2002, published 2005):
Like-named read-outs stand apart in the source and are kept apart here.

Tests used:
MscL [1] = conditions: spheroplasts
Procedure: Patch-clamp experiments on spheroplast allow quantitation of the tension sensitivity because of the presence of an internal control, which is the mechanosensitive channel of small conductance (MscS). […] For most clinical applications, it is important that the channel remains closed at pH values of 7.4.
Giant spheroplasts were prepared as described before and electrophysiological measurements were done by using symmetrical buffers, both in the bath and in the pipette. The gating threshold of MscL (or its mutant) is given as the ratio of the suction required to open MscL to that at which MscS opens.
Giant spheroplasts were prepared as described in P. Blount, et al., 1999, Methods Enzymol. 294:458-482.

MscL [2] = conditions: pH 6; Yoshimura et al. 1999; cited from earlier work
[3] = system: pB104 strain (MscL null E. coli); experiment: MTSET shock assay on agar plates with IPTG; assay type: cell-based; design: Growth −MTSET-shock: key to the marks not given beside the values
Procedure: The constructs of the G20C^Ll, V21C^Ll and G22C^Ec MscL-6His mutants were constructed using standard molecular biology techniques. The mutants were tested in pB104 strain (MscL null E. coli) by a MTSET shock assay on agar plates with IPTG (A. F. Batiza, et al., 2002, PNAS, 99:5643-5648).

MscL [4] = molecular target: T1, MscL (Escherichia coli, UniProt P0A742); assay type: biochemical, E. coli
T1 sequence (P0A742 whole entry, looked up): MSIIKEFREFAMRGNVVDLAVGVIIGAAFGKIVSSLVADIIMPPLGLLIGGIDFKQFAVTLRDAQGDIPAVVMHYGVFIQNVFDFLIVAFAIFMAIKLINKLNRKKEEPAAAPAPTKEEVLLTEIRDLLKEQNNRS
Procedure: Results Overexpression and Purification of the MscL Channel Protein
Samples were prepared and calcein efflux was monitored as described elsewhere in Example 1.
300 μl of detergent-treated liposomes were gently mixed with 240 μl of 0.25 mg/ml purified MscL-mutant G22C in elution buffer containing 0.2% Triton X-100. The mixture was incubated at 60° C. for 45 minutes, followed by the addition of an equal volume (540 μl) of calcein-loading buffer, containing 200 mM calcein, 25 mM Tris, 1 mM EDTA, pH 8.0. After addition of 20 mg of Triton X-100-absorbing Bio-Beads SM-2, the mixture was gently agitated for one hour at room temperature. Subsequently, 80 mg Bio-Beads were added and incubated at 4° C. overnight under mild agitation. Samples were prepared for calcein efflux assay as described elsewhere.

[5] = system: pB104 strain (MscL null E. coli); experiment: Growth assay of MscL mutants on agar plates with or without IPTG; assay type: cell-based; design: key: ++++: growth equal to cells expressing wild-type MscL; growth is indicated by ++++ to −; growth is indicated by ++++ to −; growth is indicated by ++++ to −; −: an absence of growth; conditions: pB104 with Lac-inducible plasmid
Procedure: The constructs of the MscL-6His mutants were constructed using standard molecular biology techniques. The mutants were tested in the pB104 strain (MscL null E. coli) by a growth assay on agar plates with or without IPTG (K. Yoshimura et al., 1999, Biophys. J. 77:1960-1972).
The first phenotype (++) grows like the single G22S mutant.

[6] = system: neurospheres (neural stem cells); experiment: Ex vivo transfection of neurospheres with pEGFP-N1 lipoplexes; assay type: cell-based, mice; conditions: 4 hours incubation, read after two days
Procedure: Neural stem cells were isolated from the forebrain of mice embryos and cultured in the presence of epidermal growth factor (EGF) and fibroblast growth factor (FGF). In the presence of these growth factors, neural stem cells form neurospheres, clusters of cells that grow in suspension.
Prior to transfection of neurospheres, the spheres were immobilized on Labtek culture plates that were coated with poly-ornithine. Subsequently, neurospheres were incubated for 4 hours with SF-6/DOPE (1:1 molar ratio), SF-63, SF-80/DOPE (1:1 molar ratio), or Lipofectamine 2000 lipoplexes, containing plasmid DNA encoding Enhanced Green Fluorescent Protein (pEGFP-N1). After two days, the transfection efficiency was determined with fluorescence microscopy.

[7] = In vivo delivery of luciferase DNA complexed with Sunfish amphiphiles; design: species or system mouse; conditions: 24 hours; efficiency order SF-46>SF-36>SF-6>SF-30>SF-63
Procedure: Sunfish (SF) amphiphiles were tested and compared to DOTAP, a commercially available amphiphile (Avanti Polar Lipids). The used plasmid DNA codes for Luciferase, which is expressed upon transfection. Luciferase activity represents the efficiency of transfection. Liposomes were prepared by drying the Sunfish amphiphiles or DOTAP in glass tubes under a nitrogen flow followed by being under vacuum for one hour. The lipid film was resuspended in 20% sucrose by mixing and warming up for five minutes to 60° C. in a water bath. The liposomal suspension was then sonicated for three minutes. For lipoplexes formation, plasmid DNA (30 μg/mouse) diluted in 20% sucrose was added to the liposomes (450 nmol/mouse) under mixing. The lipoplexes were allowed to rest at room temperature for […] and were intravenously injected (150 μl) in male BALB/c mice. Organs (lungs, heart, liver, spleen and kidneys) were collected 24 hours after injection for analysis. Luciferase activity was measured in homogenates of the different organs and related to a standard curve obtained with purified recombinant Luciferase.

Compound | Gating threshold (ratio of activation pressure to that of MscS) (MscL [1]; pH 5.85) | Gating threshold (ratio of activation pressure to that of MscS) (MscL [1]; pH 7.5) | Gating threshold (ratio of activation pressure to that of MscS) (MscL [2]) | Growth after +MTSET-shock [3] | Growth −MTSET-shock [3] | calcein efflux upon osmotic downshock (MscL [4]) | Growth on agar plates +IPTG ([5]; with IPTG) | Growth on agar plates −IPTG ([5]; without IPTG) | transfection efficiency (GFP, fluorescence microscopy) [6] | gene expression (Luciferase) after intravenous injection of complexed DNA [7]
WT: wild-type E. coli MscL (6His construct) | 1.53 ± 0.185 | 1.56 ± 0.139 | 1.64 ± 0.08 | ++++ | ++++ | greater efflux of calcein than liposomes without MscL | ++++ | ++++ |  | 
CCCCCCCC/C=C\CCCCCCCCCc1ccc[n+](CCCCCCCC/C=C\CCCCCCCC)c1.[Cl-] [SF-63, 1-(9′-cis-octadecenyl)-3-(10″-cis-nonadecenyl)pyridinium Chloride] |  |  |  |  |  |  |  |  | constant | resulted in gene expression in the lungs
